Results on two compounds are retold here after PMC11062922 (Nature Chemical Biology, 2023).

Assay [1] has as its target T1, endogenous kinases and other proteins enriched by Kinobeads from mixed lysates of K-562, COLO-205, MV-4-11, SK-N-BE(2) and OVCAR-8 (Homo sapiens, UniProt O60674).
T1 construct: endogenous in cells
Briefly: Kinobeads competition binding profiling, two doses (100 nM and 1 µM).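 Further: inhibitor preincubated 45 min at 4 °C in cell lysate, then bead pulldown. Bound protein quantified by label-free mass spectrometry relative to DMSO vehicle control.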 The settings on record: JAK2(JH1domain-catalytic).

The target in assay [2] is T2, endogenous kinases and other proteins enriched by Kinobeads from mixed lysates of K-562, COLO-205, MV-4-11, SK-N-BE(2) and OVCAR-8 (Homo sapiens, UniProt O75716).
T2 construct: endogenous in cells
T2 sequence (O75716 whole entry): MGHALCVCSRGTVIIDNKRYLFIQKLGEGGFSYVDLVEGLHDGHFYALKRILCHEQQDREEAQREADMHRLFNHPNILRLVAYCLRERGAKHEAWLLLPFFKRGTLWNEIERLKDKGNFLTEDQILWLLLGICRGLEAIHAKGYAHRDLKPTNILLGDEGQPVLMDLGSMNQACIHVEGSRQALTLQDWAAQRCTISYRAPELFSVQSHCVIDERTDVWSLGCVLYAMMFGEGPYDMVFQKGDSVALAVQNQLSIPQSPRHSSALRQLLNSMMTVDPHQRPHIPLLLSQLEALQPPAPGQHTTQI
Described as above. The settings on record: STK16.

The target in assay [3] is T3, endogenous kinases and other proteins enriched by Kinobeads from mixed lysates of K-562, COLO-205, MV-4-11, SK-N-BE(2) and OVCAR-8 (Homo sapiens, UniProt P54646).
T3 construct: endogenous in cells
The description is as above. The following applies: AMPK-alpha2.

Assay [4] deals with T4, endogenous kinases and other proteins enriched by Kinobeads from mixed lysates of K-562, COLO-205, MV-4-11, SK-N-BE(2) and OVCAR-8 (Homo sapiens, UniProt Q08345).
T4 construct: endogenous in cells
T4 sequence (Q08345 19-913): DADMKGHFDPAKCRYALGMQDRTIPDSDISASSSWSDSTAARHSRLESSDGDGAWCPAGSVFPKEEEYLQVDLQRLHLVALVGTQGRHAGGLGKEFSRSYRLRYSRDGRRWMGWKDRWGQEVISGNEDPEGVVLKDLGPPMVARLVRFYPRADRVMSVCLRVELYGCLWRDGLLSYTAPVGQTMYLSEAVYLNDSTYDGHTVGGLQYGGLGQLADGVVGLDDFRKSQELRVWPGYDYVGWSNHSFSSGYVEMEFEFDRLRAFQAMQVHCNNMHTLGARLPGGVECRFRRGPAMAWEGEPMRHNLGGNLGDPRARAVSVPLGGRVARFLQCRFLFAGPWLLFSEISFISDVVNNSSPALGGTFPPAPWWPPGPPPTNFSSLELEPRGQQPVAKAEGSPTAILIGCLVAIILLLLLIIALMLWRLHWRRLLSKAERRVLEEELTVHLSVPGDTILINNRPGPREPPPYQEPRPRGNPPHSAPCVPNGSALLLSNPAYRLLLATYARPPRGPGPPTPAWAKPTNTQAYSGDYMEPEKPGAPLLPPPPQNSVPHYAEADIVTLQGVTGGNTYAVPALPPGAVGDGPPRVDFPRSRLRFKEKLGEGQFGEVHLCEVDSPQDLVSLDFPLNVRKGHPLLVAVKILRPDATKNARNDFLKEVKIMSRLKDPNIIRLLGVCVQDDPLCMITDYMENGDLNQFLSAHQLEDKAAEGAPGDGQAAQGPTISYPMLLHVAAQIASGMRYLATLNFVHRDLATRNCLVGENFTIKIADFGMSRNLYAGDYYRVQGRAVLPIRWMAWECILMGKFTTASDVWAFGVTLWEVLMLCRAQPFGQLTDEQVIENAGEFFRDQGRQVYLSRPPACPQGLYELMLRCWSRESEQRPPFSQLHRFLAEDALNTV
The assay is described as above. The following applies: DDR1.

Assay [5] has as its target T5, endogenous kinases and other proteins enriched by Kinobeads from mixed lysates of K-562, COLO-205, MV-4-11, SK-N-BE(2) and OVCAR-8 (Homo sapiens, UniProt Q12866).
T5 construct: endogenous in cells
Described as above. The settings on record: MERTK.

Assay [6] concerns the target T6, endogenous kinases and other proteins enriched by Kinobeads from mixed lysates of K-562, COLO-205, MV-4-11, SK-N-BE(2) and OVCAR-8 (Homo sapiens, UniProt Q13131).
T6 construct: endogenous in cells
The assay is described as above. The settings on record: AMPK-alpha1.

The target in assay [7] is T7, endogenous kinases and other proteins enriched by Kinobeads from mixed lysates of K-562, COLO-205, MV-4-11, SK-N-BE(2) and OVCAR-8 (Homo sapiens, UniProt Q16584).
T7 construct: endogenous in cells
The assay is described as above. The settings on record: MLK3.

In assay [8] the target is T8, endogenous kinases and other proteins enriched by Kinobeads from mixed lysates of K-562, COLO-205, MV-4-11, SK-N-BE(2) and OVCAR-8 (Homo sapiens, UniProt Q9UHD2).
T8 construct: endogenous in cells
Described as above. The settings on record: TBK1.

For assay [9], the target named is T9, endogenous kinases and other proteins enriched by Kinobeads from mixed lysates of K-562, COLO-205, MV-4-11, SK-N-BE(2) and OVCAR-8 (Homo sapiens, UniProt Q9Y463).
T9 construct: endogenous in cells
T9 sequence (Q9Y463 whole entry): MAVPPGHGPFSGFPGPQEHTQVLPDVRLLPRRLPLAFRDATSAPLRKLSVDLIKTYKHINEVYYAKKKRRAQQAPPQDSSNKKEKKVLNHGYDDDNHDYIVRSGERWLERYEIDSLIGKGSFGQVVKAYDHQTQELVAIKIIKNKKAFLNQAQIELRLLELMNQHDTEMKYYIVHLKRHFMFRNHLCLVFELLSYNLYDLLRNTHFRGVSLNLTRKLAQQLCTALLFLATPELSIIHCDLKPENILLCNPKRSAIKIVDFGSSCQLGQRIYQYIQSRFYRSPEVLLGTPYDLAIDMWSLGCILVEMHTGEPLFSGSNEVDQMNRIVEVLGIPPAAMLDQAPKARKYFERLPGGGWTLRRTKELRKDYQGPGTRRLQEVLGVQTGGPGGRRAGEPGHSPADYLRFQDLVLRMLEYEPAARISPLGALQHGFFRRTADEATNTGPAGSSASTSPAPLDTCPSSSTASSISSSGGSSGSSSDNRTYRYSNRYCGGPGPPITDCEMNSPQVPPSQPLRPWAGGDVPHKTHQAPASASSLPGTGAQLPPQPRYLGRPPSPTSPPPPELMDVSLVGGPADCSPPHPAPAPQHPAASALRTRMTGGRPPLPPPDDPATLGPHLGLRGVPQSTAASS
The assay is described as above. The settings on record: DYRK1B.

Assay [10] addresses T10, endogenous kinases and other proteins enriched by Kinobeads from mixed lysates of K-562, COLO-205, MV-4-11, SK-N-BE(2) and OVCAR-8 (Homo sapiens, UniProt O43353).
T10 construct: to maximize the representation of endogenous proteins; endogenous in cells
Described as above. The settings on record: read-out: Lestaurtinib Drugmatrix value, Gene Name RIPK2; target RIPK2; one Lestaurtinib control experiment/replicate (R1-R3).

Assay [11] concerns the target T11, endogenous kinases and other proteins enriched by Kinobeads from mixed lysates of K-562, COLO-205, MV-4-11, SK-N-BE(2) and OVCAR-8 (Homo sapiens, UniProt Q8WZ42).
T11 construct: endogenous in cells
The assay is described as above. The settings on record: read-out: Lestaurtinib Drugmatrix value, Gene Name TTN; target TTN; one Lestaurtinib control experiment/replicate (R1-R3).

Assay [12] concerns endogenous kinases and other proteins enriched by Kinobeads from mixed lysates of K-562, COLO-205, MV-4-11, SK-N-BE(2) and OVCAR-8. The assay is described as above. Also on record: species or system human.
For another assay, the target named is T12, ABL2 (Homo sapiens, UniProt P42684).
T12 construct: endogenous in cells
The experiment in a line: Kinobeads two-dose competition binding: ABL2. The following applies: read-out: Lestaurtinib Drugmatrix value, Gene Name ABL2.

Another assay concerns the target T13, EPHB4 (Homo sapiens, UniProt P54760).
T13 construct: endogenous in cells
T13 sequence (P54760 16-987): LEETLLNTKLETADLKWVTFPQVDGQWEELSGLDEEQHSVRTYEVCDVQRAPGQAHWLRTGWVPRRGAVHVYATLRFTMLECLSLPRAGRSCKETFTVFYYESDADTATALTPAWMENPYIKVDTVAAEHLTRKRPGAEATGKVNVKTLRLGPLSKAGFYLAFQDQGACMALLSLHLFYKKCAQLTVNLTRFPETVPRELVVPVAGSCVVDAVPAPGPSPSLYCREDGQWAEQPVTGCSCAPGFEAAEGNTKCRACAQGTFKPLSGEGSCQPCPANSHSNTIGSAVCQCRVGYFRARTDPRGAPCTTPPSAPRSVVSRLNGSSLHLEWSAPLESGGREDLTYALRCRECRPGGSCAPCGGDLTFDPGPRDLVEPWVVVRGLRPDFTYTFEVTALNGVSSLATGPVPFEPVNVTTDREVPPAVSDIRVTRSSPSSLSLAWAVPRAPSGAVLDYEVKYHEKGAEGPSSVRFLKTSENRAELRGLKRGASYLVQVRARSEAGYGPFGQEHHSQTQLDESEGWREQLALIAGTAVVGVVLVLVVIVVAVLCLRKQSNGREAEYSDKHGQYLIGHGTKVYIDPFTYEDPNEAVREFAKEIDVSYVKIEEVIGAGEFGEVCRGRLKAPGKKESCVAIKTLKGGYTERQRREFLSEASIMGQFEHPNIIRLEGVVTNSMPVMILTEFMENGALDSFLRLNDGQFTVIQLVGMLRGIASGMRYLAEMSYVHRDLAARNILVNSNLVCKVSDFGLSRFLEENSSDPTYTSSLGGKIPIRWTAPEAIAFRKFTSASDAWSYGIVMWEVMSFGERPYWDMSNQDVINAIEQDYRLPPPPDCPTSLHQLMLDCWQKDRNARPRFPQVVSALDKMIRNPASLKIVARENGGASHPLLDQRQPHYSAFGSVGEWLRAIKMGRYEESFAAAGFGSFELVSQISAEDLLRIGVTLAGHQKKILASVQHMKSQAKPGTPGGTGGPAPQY
The experiment in a line: Kinobeads two-dose competition binding: EPHB4. The settings on record: read-out: Lestaurtinib Drugmatrix value, Gene Name EPHB4; target EPHB4; each column = one Lestaurtinib control replicate (batch_R1-R3).

Where “and” joins values, the source holds several entries; their conditions need not be identical. Equal entries are not always repeated.

T5 sequence (Q12866 21-999): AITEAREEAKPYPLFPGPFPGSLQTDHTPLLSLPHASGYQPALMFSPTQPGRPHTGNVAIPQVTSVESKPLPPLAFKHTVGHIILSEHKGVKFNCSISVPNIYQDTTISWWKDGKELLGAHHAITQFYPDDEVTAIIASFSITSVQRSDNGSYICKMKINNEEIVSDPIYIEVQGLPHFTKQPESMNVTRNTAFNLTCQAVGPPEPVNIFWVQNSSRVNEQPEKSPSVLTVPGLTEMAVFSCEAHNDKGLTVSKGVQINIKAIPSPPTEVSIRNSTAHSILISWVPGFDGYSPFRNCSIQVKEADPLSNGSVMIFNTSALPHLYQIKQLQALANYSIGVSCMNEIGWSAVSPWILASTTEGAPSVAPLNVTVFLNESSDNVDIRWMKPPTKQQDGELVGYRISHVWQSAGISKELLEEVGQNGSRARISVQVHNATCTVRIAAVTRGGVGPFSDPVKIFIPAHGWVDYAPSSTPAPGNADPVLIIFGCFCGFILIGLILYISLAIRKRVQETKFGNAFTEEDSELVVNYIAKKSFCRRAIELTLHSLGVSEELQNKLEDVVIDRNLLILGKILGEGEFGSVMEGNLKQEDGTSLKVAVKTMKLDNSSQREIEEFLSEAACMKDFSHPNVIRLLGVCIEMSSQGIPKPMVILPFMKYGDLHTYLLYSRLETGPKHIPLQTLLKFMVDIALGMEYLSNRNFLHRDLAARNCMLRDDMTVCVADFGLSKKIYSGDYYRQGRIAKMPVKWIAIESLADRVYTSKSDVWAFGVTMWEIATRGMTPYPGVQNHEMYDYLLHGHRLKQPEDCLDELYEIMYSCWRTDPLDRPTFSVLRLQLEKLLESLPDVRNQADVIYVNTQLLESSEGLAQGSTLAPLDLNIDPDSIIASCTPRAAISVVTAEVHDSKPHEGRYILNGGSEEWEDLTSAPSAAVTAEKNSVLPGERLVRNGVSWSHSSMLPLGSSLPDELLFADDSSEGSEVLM
T6 sequence (Q13131 whole entry): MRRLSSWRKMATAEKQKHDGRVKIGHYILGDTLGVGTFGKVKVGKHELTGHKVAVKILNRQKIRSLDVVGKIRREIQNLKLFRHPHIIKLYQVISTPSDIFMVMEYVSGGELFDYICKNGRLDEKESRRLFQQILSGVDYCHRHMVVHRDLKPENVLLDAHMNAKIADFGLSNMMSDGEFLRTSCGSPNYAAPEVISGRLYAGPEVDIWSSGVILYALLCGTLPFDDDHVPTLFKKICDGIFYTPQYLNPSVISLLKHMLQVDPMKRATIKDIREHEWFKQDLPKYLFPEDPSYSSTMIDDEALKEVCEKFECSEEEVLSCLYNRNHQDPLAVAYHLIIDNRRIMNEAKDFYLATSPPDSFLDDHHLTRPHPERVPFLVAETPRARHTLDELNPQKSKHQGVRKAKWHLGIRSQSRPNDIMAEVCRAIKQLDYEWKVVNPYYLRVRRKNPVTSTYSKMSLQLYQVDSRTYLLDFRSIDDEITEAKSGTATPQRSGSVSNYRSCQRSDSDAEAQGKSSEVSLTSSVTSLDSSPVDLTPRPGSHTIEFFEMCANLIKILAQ
T1 sequence (O60674 whole entry): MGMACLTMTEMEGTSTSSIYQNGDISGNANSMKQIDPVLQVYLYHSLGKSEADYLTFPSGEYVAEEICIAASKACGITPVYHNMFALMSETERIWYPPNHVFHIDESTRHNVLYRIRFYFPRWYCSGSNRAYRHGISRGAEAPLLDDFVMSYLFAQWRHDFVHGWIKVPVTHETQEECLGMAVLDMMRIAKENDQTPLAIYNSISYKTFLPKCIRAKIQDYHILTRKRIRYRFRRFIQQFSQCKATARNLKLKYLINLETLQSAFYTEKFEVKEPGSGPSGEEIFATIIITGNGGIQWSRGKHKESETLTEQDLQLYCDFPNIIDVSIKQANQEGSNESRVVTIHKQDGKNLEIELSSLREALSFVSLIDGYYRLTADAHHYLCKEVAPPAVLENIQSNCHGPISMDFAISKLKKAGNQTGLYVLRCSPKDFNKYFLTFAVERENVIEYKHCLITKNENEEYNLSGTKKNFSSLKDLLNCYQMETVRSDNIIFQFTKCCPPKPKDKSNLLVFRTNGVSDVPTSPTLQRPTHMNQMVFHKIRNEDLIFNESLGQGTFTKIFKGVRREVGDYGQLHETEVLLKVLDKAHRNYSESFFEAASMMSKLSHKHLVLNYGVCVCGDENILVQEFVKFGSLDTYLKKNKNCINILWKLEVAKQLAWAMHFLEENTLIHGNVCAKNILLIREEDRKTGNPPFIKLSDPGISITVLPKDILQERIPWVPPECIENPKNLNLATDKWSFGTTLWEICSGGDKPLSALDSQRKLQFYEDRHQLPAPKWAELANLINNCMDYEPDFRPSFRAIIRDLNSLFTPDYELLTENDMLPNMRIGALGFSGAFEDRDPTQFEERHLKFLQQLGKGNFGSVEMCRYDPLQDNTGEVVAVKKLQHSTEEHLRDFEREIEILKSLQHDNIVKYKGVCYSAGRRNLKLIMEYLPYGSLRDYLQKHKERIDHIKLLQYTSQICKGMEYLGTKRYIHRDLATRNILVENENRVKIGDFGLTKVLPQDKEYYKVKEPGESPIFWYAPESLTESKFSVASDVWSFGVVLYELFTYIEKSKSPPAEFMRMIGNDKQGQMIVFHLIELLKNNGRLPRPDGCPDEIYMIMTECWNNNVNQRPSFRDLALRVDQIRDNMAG
T10 sequence (O43353 whole entry): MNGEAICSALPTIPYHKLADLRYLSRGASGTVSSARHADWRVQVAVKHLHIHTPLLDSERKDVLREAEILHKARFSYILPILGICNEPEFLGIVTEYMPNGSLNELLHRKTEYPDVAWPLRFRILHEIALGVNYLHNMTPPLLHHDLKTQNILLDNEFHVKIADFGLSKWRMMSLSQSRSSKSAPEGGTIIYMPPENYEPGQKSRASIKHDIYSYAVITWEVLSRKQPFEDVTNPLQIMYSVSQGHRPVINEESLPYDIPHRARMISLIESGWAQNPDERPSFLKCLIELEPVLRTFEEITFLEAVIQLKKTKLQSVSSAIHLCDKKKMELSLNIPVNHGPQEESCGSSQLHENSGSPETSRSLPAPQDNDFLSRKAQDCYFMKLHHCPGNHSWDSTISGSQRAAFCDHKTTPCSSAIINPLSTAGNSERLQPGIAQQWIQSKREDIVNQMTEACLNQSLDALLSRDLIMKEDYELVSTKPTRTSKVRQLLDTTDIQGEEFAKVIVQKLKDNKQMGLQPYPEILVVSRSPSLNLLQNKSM

For `COc1cc(Nc2ncc3c(C)nc(-c4cc5ccccc5[nH]4)n3n2)cc(OC)c1OC` [GW869516X], the “Kinobeads Data” value in assay [1], in assay [2], in assay [3], in assay [4], in assay [5] and in [6] was “no target” throughout. Further, the “Kinobeads Data” value in [7], in assay [8] and in [9] was “no target” throughout.
For the compound `C[C@]12O[C@H](C[C@]1(O)CO)n1c3ccccc3c3c4c(c5c6ccccc6n2c5c31)CNC4=O` [Lestaurtinib], the potency estimated from few doses is 810 nM in assay [10]; 737 nM in assay [11]; 340 nM at ABL2; 207 nM and 689 nM on EPHB4. For the same compound, the “number of targets in the Kinobead assay” value in [12] worked out at 76.
